The results in this text go back to ChEMBL document CHEMBL5046251, “Discovery of a Series of Pyrimidine Carboxamides as Inhibitors of Vanin-1” (J Med Chem, 2022).

Data set [1] has as its system Mus musculus. The experiment in a line: Anti-colitis activity against DSS-induced colitis BALB/c mouse model assessed as effect on colon length at 100 mg/kg, po measured after 14 days. Conditions: time 14.0 day. The data set is classed as functional, organism-based.
The subject of data set [2] is Mus musculus. The experiment in a line: Anti-colitis activity against DSS-induced BALB/c mouse model assessed as reduction in disease activity index at 100 mg/kg, po administered for 5 to 14 days. The settings on record: time 5-14 day. Type of data set: functional, organism-based.
Data set [3] relates to Mus musculus. The experiment in a line: Anti-colitis activity against DSS-induced BALB/c mouse model assessed as increase in body weight at 100 mg/kg, po administered for 5 to 14 days. Type of data set: functional, organism-based. The settings on record: time 5-14 day.
Data set [4] is described as follows: Intrinsic clearance in human liver microsomes. Type of data set: ADME, Microsome.
A short description of data set [5]: Intrinsic clearance in human hepatocytes assessed per million cells by relay assay method. The data set is classed as ADME, cell-based, Hepatocyte.
Data set [6] addresses T1, Pantetheinase (Mus musculus, UniProt Q9Z0K8).
T1 sequence (Q9Z0K8 whole entry): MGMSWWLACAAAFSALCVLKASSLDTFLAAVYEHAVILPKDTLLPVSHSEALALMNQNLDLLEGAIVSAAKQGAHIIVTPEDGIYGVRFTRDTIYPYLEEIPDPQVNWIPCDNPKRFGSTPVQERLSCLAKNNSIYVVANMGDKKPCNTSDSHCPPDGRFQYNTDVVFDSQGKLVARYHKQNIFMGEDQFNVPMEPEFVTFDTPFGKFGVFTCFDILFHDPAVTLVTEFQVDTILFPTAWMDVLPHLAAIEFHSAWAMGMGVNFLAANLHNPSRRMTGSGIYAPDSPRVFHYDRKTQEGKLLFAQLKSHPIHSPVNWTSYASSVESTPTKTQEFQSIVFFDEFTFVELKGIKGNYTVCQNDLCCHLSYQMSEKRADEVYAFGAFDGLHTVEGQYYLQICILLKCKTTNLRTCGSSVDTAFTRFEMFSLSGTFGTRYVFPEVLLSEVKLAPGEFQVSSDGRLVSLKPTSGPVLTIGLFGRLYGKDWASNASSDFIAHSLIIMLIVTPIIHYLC
The experiment in a line: Inhibition of mouse vanin-1.

The target of data set [7] is T2, Pantetheinase (Homo sapiens, UniProt O95497).
T2 sequence (O95497 whole entry): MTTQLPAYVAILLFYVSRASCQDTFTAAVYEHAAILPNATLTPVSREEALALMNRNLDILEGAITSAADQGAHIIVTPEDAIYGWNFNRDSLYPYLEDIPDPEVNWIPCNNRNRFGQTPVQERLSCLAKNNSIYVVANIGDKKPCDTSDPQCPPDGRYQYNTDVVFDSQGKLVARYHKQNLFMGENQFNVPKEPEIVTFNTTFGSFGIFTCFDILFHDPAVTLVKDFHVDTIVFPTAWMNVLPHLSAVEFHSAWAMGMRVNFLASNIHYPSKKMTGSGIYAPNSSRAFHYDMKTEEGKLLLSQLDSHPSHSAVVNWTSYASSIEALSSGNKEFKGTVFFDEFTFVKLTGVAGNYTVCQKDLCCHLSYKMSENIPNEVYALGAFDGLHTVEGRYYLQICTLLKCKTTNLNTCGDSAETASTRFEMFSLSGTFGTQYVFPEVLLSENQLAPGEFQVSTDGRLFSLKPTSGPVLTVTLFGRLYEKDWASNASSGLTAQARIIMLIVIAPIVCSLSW
The experiment in a line: Inhibition of recombinant N-terminal FLAG/His6-tagged human vanin-1 expressed in CHO cells using Pantetheine-7-amino-4-trifluoromethykournarin as substrate preincubated for 30 mins followed by substrate addition and measured after 60 mins.

A short description of data set [8]: Intrinsic clearance in rat hepatocytes assessed per million cells. The data set is classed as ADME, cell-based, Hepatocyte.
Data set [9] is described as follows: Intrinsic clearance in human hepatocytes assessed per million cells. The data set is classed as ADME, cell-based, Hepatocyte.
Data set [10] in a line: Lipophilicity, log D of the compound in Octanol/buffer by shake-flask method.
Data set [11] in a line: Apparent permeability across apical to basolateral side in RRCK cells. The settings on record: dog, MDCK.
The target in data set [12] is T3, Biotinidase (Homo sapiens, UniProt P43251).
T3 sequence (P43251 whole entry): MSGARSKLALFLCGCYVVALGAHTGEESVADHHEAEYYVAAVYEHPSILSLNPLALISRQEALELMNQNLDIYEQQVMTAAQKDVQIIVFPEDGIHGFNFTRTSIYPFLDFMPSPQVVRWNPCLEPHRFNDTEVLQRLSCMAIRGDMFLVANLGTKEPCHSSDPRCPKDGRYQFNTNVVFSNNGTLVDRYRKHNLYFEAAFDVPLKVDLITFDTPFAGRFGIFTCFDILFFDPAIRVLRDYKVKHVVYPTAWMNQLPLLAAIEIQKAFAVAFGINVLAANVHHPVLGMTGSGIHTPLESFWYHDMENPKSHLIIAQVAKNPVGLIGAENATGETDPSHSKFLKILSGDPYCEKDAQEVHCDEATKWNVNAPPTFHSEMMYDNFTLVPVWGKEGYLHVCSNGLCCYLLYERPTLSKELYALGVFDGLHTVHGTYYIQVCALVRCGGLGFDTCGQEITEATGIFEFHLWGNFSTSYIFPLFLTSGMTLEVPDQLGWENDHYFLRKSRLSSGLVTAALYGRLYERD
The experiment in a line: Inhibition of N-terminal FLAG/His6-tagged human biotinidase expressed in COS cells using biotinyl-7-amino-4-trifluoromethylcoumarin as substrate preincubated for 10 mins followed by substrate addition and measured after 90 mins. The data set is classed as cell-based.

Data set [13] concerns the target T2, Pantetheinase. The experiment in a line: Inhibition of human plasma vanin-1 using pantetheine-7-amino-4-trifluoromethykournarin as substrate preincubated for 30 mins followed by substrate addition. The data set is classed as cell-free.

Activity calls are given as the source filed them. The rule behind the calls is not given here.

For the compound `O=C(O)c1cc(/N=N/c2ccc(S(=O)(=O)Nc3ccccn3)cc2)ccc1O`, the outcome in data set [1] and in data set [3] was Active. Moreover, the result in data set [2] was inactive.
In [4], `CC(C)(Nc1ncc(C(=O)N2CC3(CCOCC3)C2)cn1)c1cnccn1` had an Intrinsic clearance of less than 13 µL/min/mg. Besides, the CLint in data set [5] was 1.66 µL/min/1e6 cells; in data set [8], 25.8 µL/min/1e6 cells; in data set [9], less than 3.5 µL/min/1e6 cells. In addition, the IC50 in data set [6] came out at 0.41 nM; in data set [7], 0.11 nM; in [12] it was 1200 nM; in [13], 0.88 nM. The compound further returned a logD in data set [10] of 0.6. Moreover, in [11], the Papp A→B was 14 ×10⁻⁶ cm/s.
